Where “and” joins values, the source holds several entries; their conditions need not be identical. Equal entries are not always repeated.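 How tested: cells in 96-well plates exposed to compound for 48 hours at five concentrations. GI50 marks 50% less growth. The concentration for full growth arrest is given as TGI.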
Key:
Assay in all cases: growth of human tumour cells (NCI), 48 h
[1] = system: BT-549 breast
[2] = system: DU-145 prostate
[3] = system: HS 578T breast
[4] = system: A498 renal
[5] = system: CAKI-1 renal
[6] = system: HL-60(TB) leukemia
[7] = system: UACC-62 melanoma
[8] = system: SF-295 CNS
[9] = system: HCC-2998 colon
[10] = system: NCI-H522 lung
[11] = system: NCI-H460 lung
[12] = system: TK-10 renal
[13] = system: COLO 205 colon
[14] = system: U251 CNS
[15] = system: HCT-15 colon
[16] = system: MDA-MB-231 breast
[17] = system: OVCAR-4 ovarian
[18] = system: NCI-H226 lung
[19] = system: MDA-MB-435
[20] = system: SN12C renal
[21] = system: HOP-62 NSCLC
[22] = system: SNB-19 CNS
[23] = system: RPMI-8226 leukemia
[24] = system: SK-MEL-5 melanoma
[25] = system: OVCAR-8 ovarian
[26] = system: IGROV1 ovarian
[27] = system: SNB-75 CNS
[28] = system: SK-OV-3 ovarian
[29] = system: CCRF-CEM leukemia
[30] = system: LOX IMVI melanoma
[31] = system: SR leukemia
[32] = system: MALME-3M melanoma
[33] = system: HT29 colon
[34] = system: SF-539 CNS
[35] = system: 786-0 renal
[36] = system: RXF 393 renal
[37] = system: NCI/ADR-RES ovarian
[38] = system: M14 melanoma
[39] = system: SK-MEL-2 melanoma
[40] = system: EKVX NSCLC
[41] = system: SK-MEL-28 melanoma
[42] = system: OVCAR-5 ovarian
[43] = system: KM12 colon
[44] = system: SF-268 CNS
[45] = system: PC-3 prostate
[46] = system: T-47D breast
[47] = system: HCT-116 colon
[48] = system: MDA-N
[49] = system: UO-31 renal
[50] = system: NCI-H23 lung
[51] = system: MCF7 breast
[52] = system: A549 NSCLC
[53] = system: UACC-257 melanoma
[54] = system: ACHN renal
[55] = system: MOLT-4 leukemia
[56] = system: OVCAR-3 ovarian
[57] = system: HOP-92 NSCLC

In the case of `COc1ccc2cc1Oc1ccc(cc1)CC1c3c(cc(OC)c4c3Oc3cc5c(cc3O4)CCNC5C2)CCN1C` (stereo unspecified), the TGI [1] is reported as 8.01 µM, the GI50 [2] is reported as 1.54 µM and the TGI [2] is reported as 2.87 µM. For the same compound, the GI50 [3] was 1.98 µM, the TGI [3] was 4.71 µM and 4.59 µM and the GI50 [4] was 1.64 µM. For the same compound, the TGI [4] was 3.7 µM and 3.02 µM, the GI50 [5] was 1.67 µM and the TGI [5] was 5.77 µM and 3.62 µM. The TGI [6] was 3.67 µM, the TGI [7] was 3.43 µM and the GI50 [8] was 1.8 µM. The TGI [8] was 3.42 µM and 3.23 µM, the GI50 [9] was 1.2 µM and the TGI [9] was 2.53 µM and 2.5 µM. The TGI [10] was 3.27 µM, the GI50 [11] was 1.62 µM and the TGI [11] was 3.25 µM. The GI50 [12] was 1.74 µM, the TGI [12] was 3.68 µM and 3.12 µM and the TGI [13] was 3.41 µM. The GI50 [14] was 1.68 µM, the TGI [14] was 3.2 µM and the GI50 [15] was 1.86 µM. The TGI [15] was 3.73 µM and 4.31 µM, the GI50 [16] was 1.73 µM and the TGI [16] was 3.35 µM. For the same compound, the GI50 [17] was 1.61 µM, the TGI [17] was 6.16 µM and 3.13 µM and the GI50 [18] was 2.3 µM. The TGI [18] was 4.18 µM, the GI50 [19] was 1.56 µM and the TGI [19] was 3.43 µM and 2.9 µM. For the same compound, the GI50 [20] was 1.82 µM, the TGI [20] was 3.89 µM and 3.3 µM and the GI50 [21] was 1.59 µM. For the same compound, the TGI [21] was 5.06 µM and 2.95 µM, the TGI [22] was 4.32 µM and the GI50 [23] was 1.61 µM. For the same compound, the TGI [23] was 4.3 µM and 3.42 µM, the TGI [24] was 3.98 µM and the TGI [25] was 3.2 µM. For the same compound, the GI50 [26] was 1.47 µM, the TGI [26] was 3.41 µM and 2.82 µM and the GI50 [27] was 1.68 µM. For the same compound, the TGI [27] was 3.06 µM, the GI50 [28] was 1.74 µM and the TGI [28] was 15.5 µM and 3.11 µM. The TGI [29] was 3.61 µM, the TGI [30] was 3.22 µM and the TGI [31] was 2.51 µM. For the same compound, the TGI [32] was 3.68 µM, the GI50 [33] was 0.626 µM and the TGI [33] was 1.91 µM. For the same compound, the GI50 [34] was 1.9 µM, the TGI [34] was 3.23 µM and 3.69 µM and the GI50 [35] was 2.17 µM. For the same compound, the TGI [35] was 3.72 µM, the GI50 [36] was 0.288 µM and the TGI [36] was 0.883 µM. For the same compound, the GI50 [37] was 1.55 µM, the TGI [37] was 3.62 µM and 3.19 µM and the GI50 [38] was 1.73 µM. For the same compound, the TGI [38] was 6.83 µM and 3.25 µM, the GI50 [39] was 2.19 µM and the TGI [39] was 3.49 µM and 3.85 µM. For the same compound, the GI50 [40] was 1.71 µM, the TGI [40] was 3.73 µM and 3.19 µM and the GI50 [41] was 1.84 µM. The TGI [41] was 3.5 µM and 3.54 µM, the GI50 [42] was 1.98 µM and the TGI [42] was 15.1 µM and 3.46 µM. For the same compound, the GI50 [43] was 1.46 µM, the TGI [43] was 3.33 µM and 2.85 µM and the TGI [44] was 3.84 µM. The TGI [45] was 3.72 µM and 3.23 µM, the GI50 [46] was 1.75 µM and the TGI [46] was 3.53 µM. The GI50 [47] was 1.84 µM, the TGI [47] was 3.32 µM and the GI50 [48] was 1.95 µM. The TGI [48] was 3.43 µM and 3.49 µM, the GI50 [49] was 1.67 µM and the TGI [49] was 30.7 µM and 3.13 µM. For the same compound, the GI50 [50] was 1.53 µM, the TGI [50] was 4.54 µM and 3.22 µM and the TGI [51] was 3.38 µM. The TGI [52] was 4.07 µM, the GI50 [53] was 1.9 µM and the TGI [53] was 3.14 µM and 3.5 µM. The GI50 [54] was 1.49 µM, the TGI [54] was 4.01 µM and 2.81 µM and the TGI [55] was 3.44 µM. The GI50 [56] was 1.62 µM, the TGI [56] was 7.41 µM and 3.07 µM and the TGI [57] was 6.76 µM.

— PubChem BioAssay (NCI)
